Like-named read-outs stand apart in the source and are kept apart here.
Columns and labels:
[1] = test system: subjects (intranasal administration); experiment: Panel of compounds administered intranasally: effect on tearing and discomfort response
Method: (§2) A panel of twenty compounds with various receptor binding profiles, including other nicotinic acetylcholine receptor (nAchR) agonists were tested. At the onset of the experiment, 50 microliters of a 0.01 mg/mL compound formulation was administered intranasally to three subjects.

[2] = test system: subjects (intranasal administration); settings: in vivo
Method: as §2

[3] = test system: behavioral sensitization; experiment: CNS safety pharmacology, behavioral sensitization by motor activity; format: in vivo, Rat: Sprague-Dawley; settings: Compound 1 3, 10, 30 mg/kg po
[4] = test system: formalin test; experiment: Analgesic effects, formalin test; format: in vivo, Mouse: CD-1; settings: Compound 1 0.1, 1 and 10 mg/kg, Aspirin 100 mg/kg, Morphine 30 mg/kg; for analgesic effects after formalin injection, Day 1: po
[5] = excretion of radioactivity in Sprague-Dawley rat; settings: 30 mg/kg po
[6] = test system: cryopreserved hepatocytes; experiment: 24-hour incubation in cryopreserved hepatocytes (monkey); format: in vitro ADME
From the text: (§1) In human and monkey, the primary route of metabolism was through oxidation of the pyrrolidine ring (metabolite M02) before further metabolism via dioxidation to M1 or M3. In humans, parent accounted for 37% of extracellular radioactivity, M02 was 13.9%.M1 was 4.1% and M3 was 1.1%. In monkey, parent accounted for 14.2%, M02 was 5.0%, M1 was 5.8% and M3 was 29.4%. In the rat, the primary metabolite is an N-oxide-pyrimidine derivative (M9); it accounted for 71.9% of extracellular radioactivity while parent represented only 1.4%.

[7] = test system: cryopreserved hepatocytes; experiment: 24-hour incubation in cryopreserved hepatocytes (human); format: in vitro ADME
From the text: as §1

[8] = distribution studies with [14C]-Compound 1 in Long Evans and Sprague-Dawley rat; format: in vivo
From the text: In male and female Sprague-Dawley rats, tissue distribution appeared similar to that of the Long Evans rat.

[9] = metabolism in vivo after single po dose in rats; settings: rat, 30 mg/kg
Method: The main metabolite in plasma and urine was M9; in plasma from 6 to 24 hours post-dose an unknown polar metabolite (M13) accounted for a significant portion of total radioactivity. In plasma, parent accounted for 11.7% of AUC0-24 total radioactivity, M9 accounted for 20.9% and M13 accounted for 15.9%. In urine (the primary route of elimination) over a 24 hours period, parent accounted for 17.8% of total radioactivity, M9 accounted for 37.7% and M13 accounted for 0.7%.

[10] = test system: cryopreserved hepatocytes from rat, dog, monkey and human; experiment: 24-hour incubation in cryopreserved hepatocytes, species comparison; format: in vitro ADME
From the text: as §1

[11] = test system: cryopreserved hepatocytes; experiment: 24-hour incubation in cryopreserved hepatocytes (rat); format: in vitro ADME
From the text: as §1

[12] = excretion of radioactivity in monkey; format: in vivo; settings: for administered radioactive dose recovered in cage wash / administered radioactive dose recovered in diet debris / administered radioactive dose recovered in feces / administered radioactive dose recovered in urine / administered radioactive dose recovered, total: 168-hour period
[13] = test system: STZ rat model of diabetic neuropathy; experiment: Mechanical allodynia, STZ rat model of diabetic neuropathy; format: in vivo, Rat: Sprague-Dawley; settings: insulin-treated group
[14] = test system: paclitaxel-induced neuropathy, allodynia; experiment: Reversing symptoms of paclitaxel-induced neuropathy; format: in vivo, Rat; settings: 100 mg/kg ip, 90 min before testing, Weeks 3 and 4 post-paclitaxel
[15] = 50 microliters intranasally, three subjects, 0.01 mg/mL increased logarithmically up to 10 mg/mL

CC1CCC(C(C)C)C(O)C1 (stereo not drawn) [Menthol]
Causes Tearing [1, 15]: No
Discomfort Response [1, 15]: No

C=CCc1ccc(O)c(OC)c1 [Eugenol]
Causes Tearing [1, 15]: No
Discomfort Response [1, 15]: No

O=C(N[C@H]1CN2CCC1CC2)c1cc2ccoc2cn1 [PHA-543613]
Causes Tearing [1, 15]: No
Discomfort Response [1, 15]: No

Cc1ccc(C(C)C)cc1O [Carvacrol]
Causes Tearing [1, 15]: Yes
Discomfort Response ([1]; in vivo): Severe

CN1CCCC1c1cccnc1 (stereo not drawn) [Nicotine]
Discomfort Response [2]: Severe
behavioral sensitization (motor activity) [3]: marked behavioral sensitization.
Causes Tearing [1, 15]: Yes

Cc1cc([C@@H]2CCCN2C)on1 [ABT-418]
Causes Tearing [1, 15]: Yes
Discomfort Response [1, 15]: Moderate

CNCCc1ccccn1 [Betahistine]
Causes Tearing [1, 15]: No
Discomfort Response [1, 15]: No

CCOc1cc(C=O)ccc1O [Ethylvanillin]
Causes Tearing [1, 15]: No

COc1ccc(/C=C2\CCCN=C2c2cccnc2)c(OC)c1 [GTS-21]
Causes Tearing [1, 15]: Yes
Discomfort Response [1, 15]: Severe

O=c1cccc2n1C[C@@H]1CNC[C@H]2C1 [Cytisine]
Discomfort Response [2]: Moderate
Causes Tearing ([1]; in vivo): Partial

O=Cc1ccccc1 [Benzaldehyde]
Causes Tearing [1, 15]: No
Discomfort Response [1, 15]: No

c1cnc2cc3c(cc2n1)[C@@H]1CNC[C@H]3C1 [Varenicline]
Causes Tearing [1, 15]: Yes
Discomfort Response [1, 15]: No

CC12CCC(CC1)C(C)(C)O2 [Eucaliptol]
Causes Tearing [1, 15]: No
Discomfort Response [1, 15]: No

COc1cc(CNC(=O)CCCC/C=C/C(C)C)ccc1O [Capsaicin]
Causes Tearing [1, 15]: Yes
Discomfort Response [1, 15]: Severe

CC(=O)Oc1ccccc1C(=O)O [Aspirin]
analgesic effects after formalin injection, Day 1 [4]: mg/kg) and Aspirin at 100 mg/kg failed

CC(C)=C1CC[C@@H](C)CC1=O [Pulegone]
Causes Tearing [1, 15]: No
Discomfort Response ([1]; in vivo): No

C(=C\[C@H]1CCNC1)/c1cncnc1 [[^14C]-Compound 1]
time by which nearly all recovered radioactivity was eliminated [5]: ≤ 24 h
administered dose recovered in feces ([5]; 168 hour period): 10.9%
administered dose recovered in urine ([5]; 168 hour period): 77.6%
administered dose recovered, total ([5]; 168 hour period post-dose): 91.2%
share of extracellular radioactivity [6]: 14.2%
share of extracellular radioactivity [7]: 37%
tissue with highest concentration of radioactivity at final sampling time ([8]; male Long Evans rat, 1 mg/kg po, 168 hours): adrenal medulla
tissue with highest concentration of radioactivity at final sampling time ([8]; male and female Sprague-Dawley rats, 30 mg/kg po, 24 hours): adrenal medulla
extent of metabolism in vivo [9]: extensively metabolized
share of AUC0-24 total radioactivity in plasma [9]: 11.7%
share of total radioactivity in urine [9]: 17.8%
species ranking of metabolism [10]: rat>monkey>human>dog
extent of metabolism ([10]; depending on species): slightly to moderately metabolized
share of extracellular radioactivity [11]: 1.4%
time by which nearly all recovered radioactivity was eliminated ([12]; 5 mg/kg iv infusion): ≤ 24 h
administered radioactive dose recovered in cage wash ([12]; 5 mg/kg iv infusion): 7.6%
administered radioactive dose recovered in diet debris ([12]; 5 mg/kg iv infusion): 6.9%
administered radioactive dose recovered in feces ([12]; 5 mg/kg iv infusion): 7.6%
administered radioactive dose recovered in urine ([12]; 5 mg/kg iv infusion): 70.7%
administered radioactive dose recovered, total ([12]; 5 mg/kg iv infusion): 93.0%
time by which nearly all recovered radioactivity was eliminated ([12]; 10 mg/kg po): ≤ 48 h
administered radioactive dose recovered in cage wash ([12]; 10 mg/kg po): 10.2%
administered radioactive dose recovered in diet debris ([12]; 10 mg/kg po): 6.6%
administered radioactive dose recovered in feces ([12]; 10 mg/kg po): 12.8%
administered radioactive dose recovered in urine ([12]; 10 mg/kg po): 60.7%
administered radioactive dose recovered, total ([12]; 10 mg/kg po): 90.3%

CC(C)=CCC/C(C)=C/CO [Geraniol]
Causes Tearing [1, 15]: No
Discomfort Response [1, 15]: No

O=C(N[C@@H]1C2CCN(CC2)[C@H]1Cc1cccnc1)c1cc(F)cc(F)c1 [TC-6987]
Causes Tearing [1, 15]: No
Discomfort Response [1, 15]: No

CN1CC[C@]23c4c5ccc(O)c4O[C@H]2[C@@H](O)C=C[C@H]3[C@H]1C5 [Morphine]
analgesic activity after formalin injection, Day 7 ([4]; once daily for 7 days po): mg/kg) persisted on Day 7.
analgesic effects after formalin injection, Day 1 [4]: mg/kg, po) produced a significant

insulin: insulin-treated group in the STZ rat model
significant improvement in pain sensitivity [13]: glucose levels but no

NCC1(CC(=O)O)CCCCC1 [Gabapentin, reference compound]
reversing allodynia [14]: 100 mg/kg, was effective at reversing

CC[N+](CC)(CC(=O)Nc1c(C)cccc1C)Cc1ccccc1 [Denatonium]
Causes Tearing [1, 15]: No
Discomfort Response [1, 15]: No

CC12CCC(CC1=O)C2(C)C (stereo not drawn) [Camphor]
Causes Tearing [1, 15]: No
Discomfort Response [1, 15]: No

— patent US10709707B2, “Methods of treating ocular conditions” (Oyster Point Pharma, Inc., priority 2016, dated 2020)
